# From US5426099A, “Process for inducing analgesia, peptides and therapeutic compositions” (Rutgers, The State University of New Jersey, priority 1991, dated 1995)
# Entries after “also recorded” stand apart in the source; their conditions may differ. Where no end group is shown, it is not given here.
# Experiments:
# [1] = tested on: female Sprague-Dawley rats; assay: Vocalization threshold to tail shock; type: in vivo, rat; details: intrathecal; for elevation in vocalization threshold: 30 min. postinjection; for vocalization threshold compared with saline group (significance): sulfate
# From the text: Electrical stimulation (100 millisecond trains of 60 Hz square waveform at three-second intervals ranging from 0.01 to 0.4 mA in 0.01 mA increments) is applied (under computer control using a Commodore 64C computer and a Coulbourn constant current stimulator) to the surface of the tail via two lengths of blunt 18-ga stainless steel tubing coated with conductive gel (Spectra 360 Electrode Gel; Parker Laboratories Inc., Orange, N.J. 07050) and taped to the midsection of the tail 2 cm apart, parallel to the axis of the tail. An ascending/descending method of limits is used to estimate the threshold (in mA) to induce vocalization. In this method, an observer records whether or not vocalization occurs in response to each shock. If an animal vocalizes at a particular current intensity, the current intensity is then reduced stepwise until a shock no longer elicits a vocalization response. Then the current is increased stepwise until the animal again vocalizes, and so on, until all mA values for 6 such inversions are obtained. The vocalization threshold estimate is the mean of these 6 values.
# The vocalization threshold to tail shock increased by 70% over baseline (pre-injection) levels by the first minute after the intrathecal injection of VIP 11-28 (molar quantity equivalent to 25 mcg VIP 11-28, hereafter referred to as 25 mcge [microgram equivalents]).
# Female Sprague-Dawley rats weighing 250 g are used in the testing. The rats are ovariectomized and implanted surgically through the cisterna magna with an intrathecal catheter (i.t.) (PE 10 polyethylene tubing 7.5 cm length) at least 1 week before testing.
# smooth muscle = assay: Smooth muscle relaxant action
# [2] = tested on: female Sprague-Dawley rats; assay: Vocalization threshold to tail shock; type: in vivo, rat; details: intravenous, 3 mg
# [3] = tested on: female Sprague-Dawley rats; assay: Tail-flick latency to radiant heat
# [4] = tested on: periaqueductal gray matter; details: administered to rats directly into the periaqueductal gray matter; Sullivan and Pert 1981; cited from earlier work
# lumbo-sacral spinal cord = details: administered to rats to the intrathecal space of the lumbo-sacral spinal cord; Komisaruk et al. 1988; cited from earlier work
# [5] = intrathecal injection; Cridland and Henry 1988; cited from earlier work
# [6] = reported; cited from earlier work
# systemic = tested on: systemic; design: key to cardiac output / blood pressure / arterial blood flow: + = Stimulation; - = Inhibition; details: Said, cited from earlier work
# pancreatic cells = tested on: pancreatic cells; design: key: + = Stimulation; - = Inhibition; details: Robberecht+ 76; cited from earlier work
# stomach = details: Said, Mutt+ 77; cited from earlier work
# trachea = details: Said, Mutt+ 77; cited from earlier work
# colon = tested on: colon; design: key: + = Stimulation; - = Inhibition; details: cited from earlier work
# brain (amygdala) = tested on: brain (amygdala); design: key: + = Stimulation; - = Inhibition; details: Quik+ 79; cited from earlier work
# mononuclear cells = tested on: mononuclear cells; design: key: + = Stimulation; - = Inhibition; details: Ottaway+ 83; cited from earlier work
# pit. tumor cells = details: Westendorf+ 83; cited from earlier work
# eye = tested on: eye; design: key: + = Stimulation; - = Inhibition; details: cited from earlier work
# arterial cells = tested on: arterial cells; design: key: + = Stimulation; - = Inhibition; details: Huang+ 84; cited from earlier work
# cortical slices = tested on: cortical slices; design: key: + = Stimulation; - = Inhibition; details: Magistretti+ 84; cited from earlier work
# brain arteries = details: Suzuki+ 84; cited from earlier work
# bronchi = details: Palmer+ 86; cited from earlier work
# Schwann cell = details: Evans+; cited from earlier work
# [7] = design: key: + = Stimulation; - = Inhibition; details: Pandol+ 86; cited from earlier work
# gastric mucosa = tested on: gastric mucosa; design: key: + = Stimulation; - = Inhibition; details: Sutliff+ 86; cited from earlier work
# skin = tested on: skin; design: key: + = Stimulation; - = Inhibition; details: Yanaihara+ 87; cited from earlier work
# vagina = tested on: vagina; design: key: + = Stimulation; - = Inhibition; details: Fahrenkrug+ 88; cited from earlier work
# colonic cells = tested on: colonic cells; design: key: + = Stimulation; - = Inhibition; details: McCabe+ 88; cited from earlier work
# genital tract = tested on: genital tract; design: key: + = Stimulation; - = Inhibition; details: Fahrenkrug+ 88; cited from earlier work
# heart = tested on: heart; design: key: + = Stimulation; - = Inhibition; details: Smitherman+ 88; cited from earlier work
# kidney = tested on: kidney; design: key: + = Stimulation; - = Inhibition; details: Porter+ 88; cited from earlier work
# spinal cord cult. = tested on: spinal cord cult.; design: key: + = Stimulation; - = Inhibition; details: Brenneman 88; cited from earlier work
# brain (IV vent.) = tested on: brain (IV vent.); design: key: + = Stimulation; - = Inhibition; details: Drucker-Colin+ 88; cited from earlier work
# dienceph. cells = tested on: dienceph. cells; design: key: + = Stimulation; - = Inhibition; details: Reichlin 88; cited from earlier work
# pancreatic acini = tested on: pancreatic acini; design: key: + = Stimulation; - = Inhibition; details: Musso+ 88; cited from earlier work
# ovarian granulosa = tested on: ovarian granulosa; design: key: + = Stimulation; - = Inhibition; details: cited from earlier work
# uterus = details: Morris+ 89; cited from earlier work
compound,measurement,setting,value
"TRLRKQMAVKKYLNSILN-NH2 [VIP 11-28, NH--Thr--Arg--Leu--Arg--Lys--Gln--Met--Ala--Val--Lys--Lys--Tyr--Leu--Asn--Ser--Ile--Leu--Asn--Amide]",elevation in vocalization threshold,[1]; 25 mcge,170%
same,"vocalization threshold to tail shock, increase over baseline (pre-injection) levels","[1]; 25 mcge, first minute after injection, n=10",70%
same,persistence of the significant threshold elevating effect,"[1]; 25 mcge, vocalization threshold",≥ 60 min
same,vocalization threshold elevation compared with 25 mcg morphine sulfate (significance),"[1]; 25 mcge, at 1-15, 30 and 60 min. postinjection, p<0.05",significantly greater than both the morphine and the saline groups; also recorded: significantly more effective in elevating vocalization thresholds than 25 mcg morphine sulfate
same,vocalization threshold compared with saline control group (significance),"[1]; 25 mcge, p<0.05, 2-tailed, multiple t-tests",elevated over the saline control group levels at each test for the duration of the 60 min. test period
same,persistence of threshold elevating effect longer than analgesia produced by VIP 1-28,[1]; vocalization threshold,at least 30 min.
same,onset of analgesia post i.t. injection,[1]; vocalization threshold test,1 min
same,smooth muscle relaxant action,smooth muscle,has shown smooth muscle relaxant action
same,time of maximum vocalization threshold after injection,[2],1 min
same,vocalization threshold compared with saline (significance),[2],"approached, but did not reach, significance; also recorded: approaching, but not attaining, significance"
same,TFL change compared with saline group (significance),"[3]; intrathecal, 25 mcge, p<0.05, two-tailed, multiple t-test",significantly greater than the saline group
same,"mean TFL elevation, maximum, greater than the preinjection baseline level","[3]; intravenous (jugular vein catheter), 3 mg, 1 minute after injection, n=10",80%
same,TFL compared with saline control group (significance),"[3]; intravenous, 3 mg, p<0.05, 2-tailed, Scheffe test",significantly greater effect than saline
"CC[C@H](C)[C@H](NC(=O)[C@H](CO)NC(=O)[C@H](CC(N)=O)NC(=O)[C@H](CC(C)C)NC(=O)[C@H](Cc1ccc(O)cc1)NC(=O)[C@H](CCCCN)NC(=O)[C@H](CCCCN)NC(=O)[C@@H](NC(=O)[C@H](C)NC(=O)[C@H](CCSC)NC(=O)[C@H](CCC(N)=O)NC(=O)[C@H](CCCCN)NC(=O)[C@H](CCCNC(=N)N)NC(=O)[C@H](CC(C)C)NC(=O)[C@H](CCCNC(=N)N)NC(=O)[C@@H](NC(=O)[C@H](Cc1ccc(O)cc1)NC(=O)[C@H](CC(N)=O)NC(=O)[C@H](CC(=O)O)NC(=O)[C@@H](NC(=O)[C@H](Cc1ccccc1)NC(=O)[C@@H](NC(=O)[C@H](C)NC(=O)[C@H](CC(=O)O)NC(=O)[C@H](CO)NC(=O)[C@@H](N)Cc1c[nH]cn1)C(C)C)[C@@H](C)O)[C@@H](C)O)C(C)C)C(=O)N[C@@H](CC(C)C)C(=O)N[C@@H](CC(N)=O)C(N)=O [VIP 1-28, NH--His--Ser--Asp--Ala--Val--Phe--Thr--Asp--Asn--Tyr--Thr--Arg--Leu--Arg--Lys--Gln--Met--Ala--Val--Lys--Lys--Tyr--Leu--Asn--Ser--Ile--Leu--Asn--Amide]",analgesia through the central nervous system,[4],induced analgesia
same,analgesia through the central nervous system,lumbo-sacral spinal cord,induced analgesia
same,reaction time on a nociceptive test,[5],reduced reaction time
same,systemic vasodilator activity,[6],has systemic vasodilator activity
same,cardiac output,systemic; Mutt 75,+
same,hyperglycemia,systemic; Mutt 75,hyperglycemia
same,respiratory stimulation,systemic; Mutt 75,respiratory stimulation
same,arterial blood flow,systemic; Mutt+ 77,+
same,blood pressure,systemic; Mutt+ 77,-
same,cyclic AMP,pancreatic cells,+
same,smooth muscle relaxation,stomach,smooth muscle relaxation
same,smooth muscle relaxation,trachea,smooth muscle relaxation
same,smooth muscle motility,"colon; Said, Mutt+ 77",+
same,water flow,colon; Waldman+ 77,+
same,cyclic AMP,brain (amygdala),+
same,cyclic AMP,mononuclear cells,+
same,"ACTH, endorphin release",pit. tumor cells,"ACTH, endorphin release"
same,tear secretion,eye; Gilbard+ 88,+
same,intraocular pressure,eye; Mittag+ 87,-
same,adenylate cyclase,arterial cells,+
same,glycogenolypis,cortical slices,+
same,vasodilation,brain arteries,30
same,bronchodilation,bronchi,bronchodilation
same,neuronal hyperpolarization,Schwann cell,neuronal hyperpolarization
same,amylase release,[7],+
same,cyclic Amp,gastric mucosa,+
same,pepsinogen secretion,gastric mucosa,+
same,hair growth,skin,+
same,lubrication,vagina,+
same,chloride secretion,colonic cells,+
same,blood flow,genital tract,+
same,blood flow,heart,+
same,renin secretion rate,kidney,+
same,neuronal survival,spinal cord cult.,+
same,REM sleep,brain (IV vent.),+
same,somatostatin release,dienceph. cells,+
same,amylase release,pancreatic acini,+
same,androgen secretion,ovarian granulosa; Johnson 88,+
same,progesterone secretion,ovarian granulosa; Johnson+ 88,+
same,arterial relaxation,uterus,arterial relaxation
same,TFL elevation compared with saline group (significance),"[3]; intrathecal, VIP 1-28 group","approached, but did not reach, significance"
CN1CC[C@]23c4c5ccc(O)c4O[C@H]2[C@@H](O)C=C[C@H]3[C@H]1C5.O=S(=O)(O)O [morphine sulfate],elevation in vocalization threshold,[1]; 25 mcg,60%
same,vocalization threshold compared with saline group (significance),"[1]; 25 mcg, p<0.05, listed as morphine",significantly greater than the saline group
same,vocalization threshold compared with saline group (significance),"[1]; 25 mcg, p<0.05",significant elevation in vocalization threshold over the saline group at 20 and 30 min. post injection
same,TFL compared with other groups (significance),"[3]; intrathecal, 5 mcg",significantly greater than saline at 15 min. and all other groups except morphine 25 mcg at all points from 30-60 min.
same,TFL compared with other groups (significance),"[3]; intrathecal, 25 mcg, p<0.05, two-tailed, Duncan test",significantly greater than all other groups at all points from 5-60 minutes
